# From ChEMBL document CHEMBL1127557, “Novel potassium-channel openers: preparation and pharmacological evaluation of racemic and optically active N-(6-amino-3-pyridyl)-N'-bicycloalkyl-N"-cyanoguanidine derivatives” (J Med Chem, 1994)
# Experiments:
# Rattus norvegicus [1] = species: Rattus norvegicus; experiment: Compound was tested for vasorelaxant activity on the basis of ability to relax endothelium-denuded rat aortic strips toned with 20 mM KCl; assay type: functional, Aorta
# Rattus norvegicus [2] = experiment: Compound was tested for hypotensive activity in anesthetized normotensive rats by intravenous injection. Systolic blood pressure measured 30 min after injection; assay type: functional
# Rattus norvegicus [3] = experiment: Compound was tested for oral diuretic effect on spontaneously hypertensive rats by measuring the excretion of sodium at 1 mg/kg concentration; assay type: ADME, organism-based, Urine; design: dose 1 mg/kg, route oral; conditions: in vivo
# Rattus norvegicus [4] = experiment: Compound was tested for oral diuretic effect on spontaneously hypertensive rats by measuring the potassium excretion at 1 mg/kg concentration; assay type: ADME, organism-based, Urine; design: dose 1 mg/kg, route oral; conditions: in vivo
# Rattus norvegicus [5] = experiment: Compound was tested for oral diuretic effect on spontaneously hypertensive rats by measuring the urinary volume at 5 mg/kg concentration; assay type: functional, Urine
# Rattus norvegicus [6] = species: Rattus norvegicus; experiment: Compound was tested for oral diuretic effect on spontaneously hypertensive rats by measuring the potassium excretion at vehicle concentration; assay type: ADME, organism-based, Urine; conditions: in vivo
# Rattus norvegicus [7] = species: Rattus norvegicus; experiment: Compound was tested for oral diuretic effect on spontaneously hypertensive rats by measuring the urinary volume at vehicle concentration; assay type: functional, Urine
# Rattus norvegicus [8] = experiment: Compound was tested for oral diuretic effect on spontaneously hypertensive rats by measuring the urinary volume at 1 mg/kg concentration; assay type: functional, Urine
# [9] = Ratio between Na+ and K+ excretion values at a dose of 5 mg/kg; assay type: ADME, organism-based; design: dose 5 mg/kg; conditions: in vivo
# Rattus norvegicus [10] = experiment: Compound was tested for oral diuretic effect on spontaneously hypertensive rats by measuring the potassium excretion at 5 mg/kg concentration; assay type: ADME, organism-based, Urine; design: dose 5 mg/kg, route oral; conditions: in vivo
# [11] = Ratio between Na+ and K+ excretion values at a dose of 1 mg/kg; assay type: ADME, organism-based; design: dose 1 mg/kg; conditions: in vivo
# Rattus norvegicus [12] = species: Rattus norvegicus; experiment: Compound was tested for oral diuretic effect on spontaneously hypertensive rats by measuring the excretion of sodium at vehicle concentration; assay type: ADME, organism-based, Urine; conditions: in vivo
# Rattus norvegicus [13] = experiment: Compound was tested for hypotensive activity in anesthetized normotensive rats by intravenous injection, Systolic blood pressure measured 30 min after injection; assay type: functional; conditions: 0.5 h
# Rattus norvegicus [14] = experiment: Compound was tested for oral diuretic effect on spontaneously hypertensive rats by measuring the excretion of sodium at 5 mg/kg concentration.; assay type: ADME, organism-based, Urine; design: dose 5 mg/kg, route oral; conditions: in vivo
# Rattus norvegicus [15] = experiment: Compound was tested for oral diuretic effect on spontaneously hypertensive rats by measuring the excretion of sodium at 5 mg/kg concentration; assay type: ADME, organism-based, Urine; design: dose 5 mg/kg, route oral; conditions: in vivo
# [16] = Rattus norvegicus, Blood, iv, 0.5 h, read-out: ED30
Compound,"IC50 (Rattus norvegicus [1]; Rattus norvegicus, Aorta)",IC50 (Rattus norvegicus [1]),Na+ excretion (Rattus norvegicus [3]),K+ excretion (Rattus norvegicus [4]),K+ excretion (Rattus norvegicus [6]),Ratio [9],K+ excretion (Rattus norvegicus [10]),Ratio [11],Na+ excretion (Rattus norvegicus [12]),ED30 (Rattus norvegicus [2]; [16]),Urinary volume (Rattus norvegicus [5]),Urinary volume (Rattus norvegicus [7]),Urinary volume (Rattus norvegicus [8]),also measured
Cl.N#CN/C(=N\C1CC2CCC1C2)Nc1ccc(N)nc1 (stereo not given),593 nM,,,,,,,,,0.74 mg/kg,,,,
N#CN/C(=N\[C@H]1C[C@H]2CC[C@@H]1C2)Nc1ccc(N)nc1,,90 nM,,,,,,,,0.1 mg/kg,,,,
Cl.N#CN/C(=N\[C@@H]1CC2CCC1C2)Nc1ccc(N)nc1 (mixture of isomers),,,1.523 m equiv 5hr-1 kg-1,1.35 m equiv 5hr-1 kg-1,1.078 m equiv 5hr-1 kg-1,0.5,1.249 m equiv 5hr-1 kg-1,1.08,1.357 m equiv 5hr-1 kg-1,,4.68 ml kg-1 5hr-1,5.15 ml kg-1 5hr-1,8.77 ml kg-1 5hr-1,ED30 (Rattus norvegicus [13]): 0.51 mg/kg; Na+ excretion (Rattus norvegicus [14]): 0.694 m equiv 5hr-1 kg-1
N#CN/C(=N\[C@@H]1C[C@H]2CC[C@@H]1C2)Nc1ccc(N)nc1 (stereo in doubt; (+)-9),,267 nM,,,,,,,,,,,,ED30 (Rattus norvegicus [2]): 0.4 mg/kg
N#CN/C(=N\[C@@H]1C[C@H]2CC[C@@H]1C2)Nc1ccc(N)nc1 (stereo in doubt; (-)-9),278 nM,,,,,,,,,0.57 mg/kg,,,,
CC1(C)Oc2ccc(C#N)cc2[C@@H](N2CCCC2=O)[C@@H]1O [CROMAKALIM],110 nM,,,,,,,,,0.11 mg/kg,,,,
CC(N/C(=N\C#N)Nc1ccncc1)C(C)(C)C (stereo not given) [PINACIDIL ANHYDROUS],380 nM,,1.27 m equiv 5hr-1 kg-1,1.546 m equiv 5hr-1 kg-1,1.078 m equiv 5hr-1 kg-1,0.12,0.584 m equiv 5hr-1 kg-1,0.78,1.357 m equiv 5hr-1 kg-1,0.15 mg/kg,2.56 ml kg-1 5hr-1,5.15 ml kg-1 5hr-1,7.62 ml kg-1 5hr-1,Na+ excretion (Rattus norvegicus [15]): 0.078 m equiv 5hr-1 kg-1

# More lines, main results first:
"IC50 (Rattus norvegicus [1]; Rattus norvegicus, Aorta)",IC50 (Rattus norvegicus [1]),Na+ excretion (Rattus norvegicus [3]),K+ excretion (Rattus norvegicus [4]),K+ excretion (Rattus norvegicus [6]),Ratio [9],K+ excretion (Rattus norvegicus [10]),Ratio [11],Na+ excretion (Rattus norvegicus [12]),Compound,ED30 (Rattus norvegicus [2]; [16]),Urinary volume (Rattus norvegicus [5]),Urinary volume (Rattus norvegicus [7]),Urinary volume (Rattus norvegicus [8]),also measured
,71 nM,,,,,,,,C[C@]12CC[C@H](C[C@@H]1/N=C(\NC#N)Nc1ccc(N)nc1)C2.Cl,,,,,ED30 (Rattus norvegicus [2]): 0.28 mg/kg
118 nM,,,,,,,,,C[C@]12CC[C@H](C[C@@H]1/N=C(\NC#N)Nc1ccc(N)nc1)C2,0.18 mg/kg,,,,
,392 nM,0.89 m equiv 5hr-1 kg-1,0.646 m equiv 5hr-1 kg-1,0.8 m equiv 5hr-1 kg-1,1.27,1.46 m equiv 5hr-1 kg-1,1.54,1.072 m equiv 5hr-1 kg-1,Cl.N#CN/C(=N\[C@H]1C[C@H]2CC[C@@H]1C2)Nc1ccc(N)nc1 (racemic),0.17 mg/kg,18.37 ml kg-1 5hr-1,6.84 ml kg-1 5hr-1,5.53 ml kg-1 5hr-1,Na+ excretion (Rattus norvegicus [15]): 1.865 m equiv 5hr-1 kg-1
,79 nM,0.8 m equiv 5hr-1 kg-1,0.747 m equiv 5hr-1 kg-1,0.8 m equiv 5hr-1 kg-1,0.59,0.515 m equiv 5hr-1 kg-1,1.08,1.072 m equiv 5hr-1 kg-1,C[C@]12CC[C@H](C[C@@H]1/N=C(\NC#N)Nc1ccc(N)nc1)C2.Cl (racemic),0.2 mg/kg,7.31 ml kg-1 5hr-1,6.84 ml kg-1 5hr-1,6.92 ml kg-1 5hr-1,Na+ excretion (Rattus norvegicus [15]): 0.311 m equiv 5hr-1 kg-1
